# Laboratory results as given in patent US9102638B2, “Amidobenzothiazoles and process for the preparation thereof” (COUNCIL OF SCIENTIFIC & INDUSTRIAL RESEARCH, priority 2011, dated 2015).
# Tests used:
# Format in all cases: cell-based
# SK-OV-3 = test: In vitro cytotoxicity, NCI screen: SK-OV-3 (Ovarian); conditions: Homo sapiens; SK-OV-3, Ovarian panel, NCI protocol; read-out: GI50 values (μM conc.)
# Protocol: (§1) The in vitro anticancer activity studies for these amidobenzothiazoles were carried out at the National Cancer Institute, Maryland, USA.
# (§2) The amidobenzothiazoles have been tested against sixty human tumor cell lines derived from nine cancer types (leukemia cancer cell line, non-small cell lung cancer cell line, colon cancer cell line, CNS cancer cell line, melanoma cancer cell line, ovarian cancer cell line, renal cancer cell line, prostate cancer cell line and breast cancer cell lines). For these compounds results are expressed in GI50 values of that particular cancer cell at micro molar (μM) concentration as per NCI protocol.
# HT29 = test: In vitro cytotoxicity, NCI screen: HT29 (Colon); conditions: Homo sapiens, HT-29; HT29, Colon panel, NCI protocol; read-out: GI50 values (μM conc.)
# Protocol: as §1, §2
# 786-0 = test: In vitro cytotoxicity, NCI screen: 786-0 (Renal); conditions: Homo sapiens; 786-0, Renal panel, NCI protocol; read-out: GI50 values (μM conc.)
# Protocol: as §1, §2
# EKVX = test: In vitro cytotoxicity, NCI screen: EKVX (Non-small cell lung); conditions: Homo sapiens, Non-small cell lung panel, NCI protocol, read-out: GI50 values (μM conc.)
# Protocol: as §1, §2
# SNB-75 = test: In vitro cytotoxicity, NCI screen: SNB-75 (CNS); conditions: Homo sapiens; SNB-75, CNS panel, NCI protocol; read-out: GI50 values (μM conc.)
# Protocol: as §1, §2
# T-47D = test: In vitro cytotoxicity, NCI screen: T-47D (Breast); conditions: Homo sapiens, T47D, Breast panel, NCI protocol, read-out: GI50 values (μM conc.)
# Protocol: as §1, §2
# NCI/ADR-RES = test: In vitro cytotoxicity, NCI screen: NCI/ADR-RES (Ovarian); conditions: Homo sapiens, Ovarian panel, NCI protocol, read-out: GI50 values (μM conc.)
# Protocol: as §1, §2
# NCI-H226 = test: In vitro cytotoxicity, NCI screen: NCI-H226 (Non-small cell lung); conditions: Homo sapiens; NCI-H226, Non-small cell lung panel, NCI protocol; read-out: GI50 values (μM conc.)
# Protocol: as §1, §2
# HOP-92 = test: In vitro cytotoxicity, NCI screen: HOP-92 (Non-small cell lung); conditions: Homo sapiens; HOP-92, Non-small cell lung panel, NCI protocol; read-out: GI50 values (μM conc.)
# Protocol: as §1, §2
# SK-MEL-28 = test: In vitro cytotoxicity, NCI screen: SK-MEL-28 (Melanoma); conditions: Homo sapiens; SK-MEL-28, Melanoma panel, NCI protocol; read-out: GI50 values (μM conc.)
# Protocol: as §1, §2
# TK-10 = test: In vitro cytotoxicity, NCI screen: TK-10 (Renal); conditions: Homo sapiens; TK-10, Renal panel, NCI protocol; read-out: GI50 values (μM conc.)
# Protocol: as §1, §2
# RXF 393 = test: In vitro cytotoxicity, NCI screen: RXF 393 (Renal); conditions: Homo sapiens; RXF 393, Renal panel, NCI protocol; read-out: GI50 values (μM conc.)
# Protocol: as §1, §2
# CAKI-1 = test: In vitro cytotoxicity, NCI screen: CAKI-1 (Renal); conditions: Homo sapiens; CAKI-1, Renal panel, NCI protocol; read-out: GI50 values (μM conc.)
# Protocol: as §1, §2
# SF-268 = test: In vitro cytotoxicity, NCI screen: SF-268 (CNS); conditions: Homo sapiens, read-out: GI50 values (μM conc.)
# Protocol: as §1, §2
# SF-539 = test: In vitro cytotoxicity, NCI screen: SF-539 (CNS); conditions: Homo sapiens, read-out: GI50 values (μM conc.)
# Protocol: as §1, §2
# OVCAR-5 = test: In vitro cytotoxicity, NCI screen: OVCAR-5 (Ovarian); conditions: Homo sapiens; OVCAR-5, Ovarian panel, NCI protocol; read-out: GI50 values (μM conc.)
# Protocol: as §1, §2
# RPMI-8226 = test: In vitro cytotoxicity, NCI screen: RPMI-8226 (Leukemia); conditions: Homo sapiens; RPMI-8226, Leukemia panel, NCI protocol; read-out: GI50 values (μM conc.)
# Protocol: as §1, §2
# COLO-205 = test: In vitro cytotoxicity, NCI screen: COLO-205 (Colon); conditions: Homo sapiens; COLO-205, Colon panel, NCI protocol; read-out: GI50 values (μM conc.)
# Protocol: as §1, §2
# PC-3 = test: In vitro cytotoxicity, NCI screen: PC-3 (Prostate); conditions: Homo sapiens; PC-3, Prostate panel, NCI protocol; read-out: GI50 values (μM conc.)
# Protocol: as §1, §2
# CNS cancer cell lines = test: In vitro activity against CNS cancer cell lines (panel range); conditions: Homo sapiens, read-out: GI50 values, range over the listed compounds and the panel
# Protocol: as §1, §2
# U251 = test: In vitro cytotoxicity, NCI screen: U251 (CNS); conditions: Homo sapiens, U-251; U251, CNS panel, NCI protocol; read-out: GI50 values (μM conc.)
# Protocol: as §1, §2
# K-562 = test: In vitro cytotoxicity, NCI screen: K-562 (Leukemia); conditions: Homo sapiens, K562; read-out: GI50 values (μM conc.)
# Protocol: as §1, §2
# SK-MEL-5 = test: In vitro cytotoxicity, NCI screen: SK-MEL-5 (Melanoma); conditions: Homo sapiens; SK-MEL-5, Melanoma panel, NCI protocol; read-out: GI50 values (μM conc.)
# Protocol: as §1, §2
# NCI-H322M = test: In vitro cytotoxicity, NCI screen: NCI-H322M (Non-small cell lung); conditions: Homo sapiens, Non-small cell lung panel, NCI protocol, read-out: GI50 values (μM conc.)
# Protocol: as §1, §2
# UACC-257 = test: In vitro cytotoxicity, NCI screen: UACC-257 (Melanoma); conditions: Homo sapiens; UACC-257, Melanoma panel, NCI protocol; read-out: GI50 values (μM conc.)
# Protocol: as §1, §2
# UO-31 = test: In vitro cytotoxicity, NCI screen: UO-31 (Renal); conditions: Homo sapiens; UO-31, Renal panel, NCI protocol; read-out: GI50 values (μM conc.)
# Protocol: as §1, §2
# OVCAR-3 = test: In vitro cytotoxicity, NCI screen: OVCAR-3 (Ovarian); conditions: Homo sapiens; OVCAR-3, Ovarian panel, NCI protocol; read-out: GI50 values (μM conc.)
# Protocol: as §1, §2
# SW-620 = test: In vitro cytotoxicity, NCI screen: SW-620 (Colon); conditions: Homo sapiens; SW-620, Colon panel, NCI protocol; read-out: GI50 values (μM conc.)
# Protocol: as §1, §2
SMILES,GI50 (SK-OV-3) [µM],GI50 (786-0) [µM],GI50 (EKVX) [µM],GI50 (SNB-75) [µM],GI50 (T-47D) [µM],GI50 (NCI/ADR-RES) [µM],GI50 (NCI-H226) [µM],GI50 (HOP-92) [µM],GI50 (RXF 393) [µM],GI50 (CAKI-1) [µM],GI50 (SF-268) [µM],GI50 (SF-539) [µM],GI50 (RPMI-8226) [µM],GI50 (COLO-205) [µM],GI50 (PC-3) [µM],GI50 (CNS cancer cell lines) [µM],GI50 (U251) [µM],GI50 (UACC-257) [µM],GI50 (UO-31) [µM],GI50 (OVCAR-3) [µM],further results
"COc1ccc(/C=C\c2cc(OC)c(OC)c(OC)c2)cc1OCC(=O)Nc1nc2ccc(C(F)(F)F)cc2s1 [Compound 8i, N1-(6-(trifluoromethyl)-1,3-benzothiazol-2-yl)-2-{2-methoxy-5-[(Z)-2-(3,4,5-trimethoxyphenyl)-1-ethenyl]phenoxy}acetamide]",3.29,6.96,6.25,1.58,4.79,2.12,3.17,2.88,2.27,3.1,3.85,2.66,5.48,17.1,4.32,0.045 to 18.8,3.67,40,3.59,2.11,GI50 (HT29): 14.9 µM; GI50 (SK-MEL-28): 3 µM; GI50 (TK-10): 7.03 µM; GI50 (OVCAR-5): 5.98 µM; GI50 (K-562): 3.3 µM; GI50 (SK-MEL-5): 2.84 µM; GI50 (NCI-H322M): 5.38 µM; GI50 (SW-620): 4.65 µM
"COc1ccc(/C=C\c2cc(OC)c(OC)c(OC)c2)cc1OCC(=O)Nc1nc2ccccc2s1 [Compound 8a, N1-(1,3-benzothiazol-2-yl)-2-{2-methoxy-5-[(Z)-2-(3,4,5-trimethoxyphenyl)-1-ethenyl]phenoxy}acetamide]",0.34,7.3,0.038,0.046,1,0.033,0.27,0.039,0.05,0.41,0.18,0.045,0.15,2.83,0.18,0.045 to 18.8,0.048,11,0.58,0.043,GI50 (HT29): 3.16 µM; GI50 (K-562): 0.042 µM; GI50 (SK-MEL-5): 0.036 µM
"COc1ccc(C2CC(c3cc(OC)c(OC)c(OC)c3)=NN2C(C)=O)cc1OCC(=O)Nc1nc2ccc(C(F)(F)F)cc2s1 (stereo not drawn) [Compound 10i, N1-(6-(trifluoromethyl)-1,3-benzothiazol-2-yl)-2-{5-[1-acetyl-3-(3,4,5-trimethoxyphenyl)-4,5-dihydro-1H-5-pyrazolyl]-2-methoxyphenoxy}acetamide]",5.75,3.58,4.1,1.55,2.75,3.13,2.22,1.7,2.09,2.17,3.84,1.75,2.21,3.94,2.92,0.045 to 18.8,3.08,3.77,1.93,1.84,GI50 (SK-MEL-28): 3.56 µM; GI50 (TK-10): 2.85 µM; GI50 (OVCAR-5): 28.2 µM; GI50 (NCI-H322M): 3.67 µM; GI50 (SW-620): > 100 µM
"COc1ccc(/C=C\c2cc(OC)c(OC)c(OC)c2)cc1OCC(=O)Nc1nc2ccc(F)cc2s1 [Compound 8e, N1-(6-fluoro-1,3-benzothiazol-2-yl)-2-{2-methoxy-5-[(Z)-2-(3,4,5-trimethoxyphenyl)-1-ethenyl]phenoxy}acetamide]",8,7.12,5.72,4.39,3.39,2.55,5.6,5.73,6.29,2.78,7.23,4.51,6.36,7.78,6.74,0.045 to 18.8,4.33,8.69,2.56,9.99,GI50 (HT29): 9.63 µM; GI50 (SK-MEL-28): > 100 µM; GI50 (TK-10): 9.89 µM; GI50 (OVCAR-5): > 100 µM; GI50 (K-562): 3.62 µM; GI50 (SK-MEL-5): 1.76 µM; GI50 (NCI-H322M): > 100 µM; GI50 (SW-620): 65 µM
"COc1ccc(/C=C\c2cc(OC)c(OC)c(OC)c2)cc1OCC(=O)Nc1nc2ccc(OC(F)(F)F)cc2s1 [Compound 8j, N1-(6-(trifluoromethoxy)-1,3-benzothiazol-2-yl)-2-{2-methoxy-5-[(Z)-2-(3,4,5-trimethoxyphenyl)-1-ethenyl]phenoxy}acetamide]",8.42,54.3,7.89,1.56,3.95,2.7,4.3,2.74,2.65,4.6,6.01,2.28,5.83,43.3,5.12,0.045 to 18.8,3.37,89.2,4.37,3.37,GI50 (HT29): > 100 µM; GI50 (SK-MEL-28): 4.57 µM; GI50 (TK-10): 18.6 µM; GI50 (OVCAR-5): 3.12 µM; GI50 (K-562): 3.43 µM; GI50 (SK-MEL-5): 3.26 µM; GI50 (NCI-H322M): > 100 µM; GI50 (SW-620): 5.65 µM
